In US7691851B2, “Metalloprotease inhibitors containing a heterocyclic moiety” (Alantos Pharmaceuticals Holding, Inc., priority 2007, dated 2010):

Molecular target: T1, MMP-13 (Homo sapiens, UniProt P45452)
T1 construct: 10 μL of a 50 nM stock solution of catalytic domain of MMP-13 enzyme; purchased Invitek (Berlin) 30100812
Assay: Assay for determining MMP-13 inhibition (fluorescent substrate)
Format: biochemical
Details: catalytic domain of MMP-13
Experimental: The inhibiting activity towards different metalloproteases of the heterocyclic metalloprotease inhibiting compounds of the present invention may be measured using any suitable assay known in the art. A standard in vitro assay for measuring the metalloprotease inhibiting activity is described in Examples 1700 to 1704.
The typical assay for MMP-13 activity is carried out in assay buffer comprised of 50 mM Tris, pH 7.5, 150 mM NaCl, 5 mM CaCl2 and 0.05% Brij-35. Different concentrations of tested compounds are prepared in assay buffer in 50 μL aliquots. 10 μL of a 50 nM stock solution of catalytic domain of MMP-13 enzyme (produced by Alantos or commercially available from Invitek (Berlin), Cat.# 30100812) is added to the compound solution. The mixture of enzyme and compound in assay buffer is thoroughly mixed and incubated for 10 min at room temperature. Upon the completion of incubation, the assay is started by addition of 40 μL of a 12.5 μM stock solution of MMP-13 fluorescent substrate (Calbiochem, Cat. No. 444235). The time-dependent increase in fluorescence is measured at the 320 nm excitation and 390 nm emission by automatic plate multireader. The IC50 values are calculated from the initial reaction rates.

[1] = compounds stated as lower than 100 nM

| IC50 [1] [nM] | IC50 (range class, units printed within the value (nM to μM)) [nM] | Compound |
| --- | --- | --- |
| < 100 | – | Cc1c(C(=O)O)ccc2c1CC[C@@H]2NC(=O)c1cc(C(=O)NCc2ccc3c(c2)NC(=S)CO3)nc2ccnn12 [1/1] |
| – | 100 to 20000 | Cc1c(C(=O)O)ccc2c1CC[C@@H]2NC(=O)c1cc(C(=O)NCc2ccc3c(c2)-n2c(noc2=O)CO3)nc2ccnn12 [Example 1/2] |
| < 100 | – | Cc1c(C(=O)O)ccc2c1CC[C@@H]2NC(=O)c1cc(C(=O)NCc2ccc3c(c2)-n2cnnc2CO3)nc2ccnn12 [Example 1] |
